Our source for the melting point values is US20050265923A1, “Embolus therapy using insoluble microparticles or vesicles containing contrast agents” (priority 1997, published 2005).

By melting point is commonly meant the temperature, or range, at which the solid turns liquid. For `CCOC(=O)c1c(I)c(NC(C)=O)c(I)c(NC(C)=O)c1I` [NC 8883, Ethyl 3,5-diacetamido-2,4,6-triiodobenzoate], the melting point is 280 to 290 °C (dec.).
For `CCOC(=O)COC(=O)c1c(I)c(NC(C)=O)c(I)c(NC(C)=O)c1I` [NC 12901, Ethyl (3,5-diacetamido-2,4,6-triiodobenzoyloxy)acetate] the value was 269.5 to 270.5 °C (dec.).
